Data reported in patent US4822606A, “Immunosuppressive synthetic peptides and analogs thereof based on retroviral envelope sequences” (Duke University, priority 1986, dated 1989).
Ends that are not written are not given here.

Legend:
murine CTLL-2 cells = assay: Murine cytotoxic T lymphocyte (CTLL-2) IL-2 dependent proliferation assay; assay type: cell-based; conditions: for average inhibition of CTLL-2 proliferation: coupled to BSA, CS-1 5 experiments, CS-3 4 experiments;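 on all read-outs here: CTLL-2 cells, 4 x 10^3 per well in 96-well plates with RPMI plus 6% FBS, proliferation read as cell-bound radioactivity counted by liquid scintillation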
[1] = tested on: lymphocytes from two non-related individuals; assay: Human two-way mixed leukocyte culture (MLC); assay type: cell-based; conditions: 4 experiments, 6-day culture, coupled to BSA
Protocol: Fifty μl of RPMI containing 1×10^5 lymphocytes from each of two non-related individuals was added to each well of a 96 well tissue culture plate. An additional 50 μl of RPMI was added and cultures were incubated at 37° C. in humidified 5% CO2 for 5 days. Fifty μl of RPMI containing either peptide or no addition was added for an additional 24 hr. During the final 4 hr of incubation each well was incubated with 25 μl of RPMI containing 0.5 μCi of ^3 H-thymidine and incorporated radionucleotide determined as above.

human lymphocytes = assay: Binding of [^125 I]-CKS-17-BSA to cultured human lymphocytes; conditions: >1000 fold excess of unlabeled BSA conjugate
Protocol: Human mononuclear cells were stimulated for 3 days with PHA, washed free of lectin, cultured for 10 days with 10% of a human IL-2 preparation (electronucleonics) washed and resuspended to 5×10^6 cells/ml in phosphate-buffered-saline, pH 7.2 (PBS) containing 0.1% BSA. […] Binding was terminated and unbounded [^125 I]-CKS-17-BSA removed by rapid (30 sec.) centrifugation of the cells through oil. The cell associated radioactivity was measured using a gamma radiation counter.

[2] = tested on: OKT3-stimulated human lymphocytes; assay: Human lymphocyte proliferative response to OKT3 antibody; assay type: cell-based; conditions: 5 experiments, 3 days, coupled to BSA
Protocol: One hundred μl of RPMI containing 2×10^5 lymphocytes was added to each well of a 96 well tissue culture plate. Fifty μl of RPMI containing either peptide or no addition was added for 2 hr at 37° C followed by the addition of 50 μl of RPMI containing nothing or Con A (40 μg/ml) or OKT3 antibody (1:1000 dilution). The cultures were incubated for 72 hr at 37° C. in 5% humidified CO2, pulsed with ^3 Hthymidine (0.,5 μCi/well, 4h.) and the incorporated radioactivity determined as described above. The concentration of OKT3 antibody used was previously determined to give 75-100% of a maximal response.

human monocytes = assay: Monocyte superoxide anion (O2^-) release; assay type: cell-based; conditions: WGA stimulated, peptide coupled to BSA, mean ± SE
Protocol: Monocytes were aliquoted into 12×75 mm polypropylene tubes (Falcon, Oxnard, CA) and incubated at 37° C. with test materials for twenty minutes. Cytochalasin E was then added to give a final concentration of 5 μg/ml. Ten minutes later 1.5 mg/ml cytochrome C was added followed immediately by wheat germ agglutinin (WGA) to a final concentration of 30 μg/ml (1). Supernatants were removed after 5 min. for determination of O2^- dismutase-inhibitable reduction of cytochrome C (2).

Substance | average inhibition of CTLL-2 proliferation (murine CTLL-2 cells; ca. 3.75 μM) [%] | average inhibition of CTLL-2 proliferation (murine CTLL-2 cells; ca. 7.5 μM) [%] | average inhibition of CTLL-2 proliferation (murine CTLL-2 cells; ca. 15 μM) [%] | average inhibition of human two-way MLC ([1]; 3.75 μM) [%] | average inhibition of human two-way MLC ([1]; 7.5 μM) [%] | average inhibition of human two-way MLC ([1]; 15 μM) [%] | inhibition of [^125 I]-CKS-17-BSA binding by excess unlabelled material (human lymphocytes) | average inhibition of OKT3-stimulated lymphocyte proliferation ([2]; ca. 3.75 μM) [%] | average inhibition of OKT3-stimulated lymphocyte proliferation ([2]; ca. 7.5 μM) [%] | average inhibition of OKT3-stimulated lymphocyte proliferation ([2]; ca. 15 μM) [%] | O2^- Release (human monocytes; dilution 1:20) | O2^- Release (human monocytes; dilution 1:40) | effect upon CTLL-2 cell proliferation (murine CTLL-2 cells; peptides coupled to BSA or control BSA, same conditions as the active peptide)
AQNRRGLDLLFWEQGGL [CS-1] | 13.4 | 39.8 | 92.8 | 51.8 | 72.2 | 81.8 | binding could be inhibited | 26.8 | 42.8 | 57.6 |  |  | 
Glu-Val-Val-Leu-Glnpartial Asn-Arg-Arg-Gly-Leu-Asp-Leu-Leu (chain 1 EVVLQ; chain 2 NRRGLDLL; printed: Glu-Val-Val-Leu-Gln; printed: Asn-Arg-Arg-Gly-Leu-Asp-Leu-Leu) [SP-9] |  |  |  |  |  |  |  |  |  |  | 10.6 ± 0.3 nmoles/5 minues/1.2 × 10^6 mon | 12.4 ± 0.5 nmoles/5 minues/1.2 × 10^6 mon | little or no effect
LQARILAVERYLKDQQL [CS-3] | 3.5 | 23.2 | 81.8 | 44.5 | 74.0 | 88.5 | binding could be inhibited | 23.2 | 33.4 | 40.4 |  |  | 
